# Assay results taken from US20240150290A1, “HETEROCYCLIC P2Y14 RECEPTOR ANTAGONISTS” (priority 2021, published 2024).
# Read-outs that look alike come from different tables or passages of the source.
# Tests used:
# mP2Y14R = target: T1, mP2Y14R (Mus musculus, UniProt Q9ESG6); experiment: cell-based; settings: for affinity at the mP2Y14R vs the human homologue: comparison of species, in words
# T1 sequence (Q9ESG6 1-338): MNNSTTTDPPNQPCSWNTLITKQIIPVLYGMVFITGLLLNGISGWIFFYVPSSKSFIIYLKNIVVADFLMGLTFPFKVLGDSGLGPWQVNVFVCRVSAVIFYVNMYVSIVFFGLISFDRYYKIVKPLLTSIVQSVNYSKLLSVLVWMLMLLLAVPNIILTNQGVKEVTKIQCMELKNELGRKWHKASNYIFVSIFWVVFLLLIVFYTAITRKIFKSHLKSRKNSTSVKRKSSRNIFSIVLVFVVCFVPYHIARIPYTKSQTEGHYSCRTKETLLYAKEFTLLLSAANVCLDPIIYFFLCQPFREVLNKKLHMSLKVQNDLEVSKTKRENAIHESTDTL
# Excerpt: Desirably, receptor affinity is maintained across species, facilitating performance in in vivo preclinical testing in small animals, with the mouse being the most commonly used species in initial evaluation.
# hP2Y14R = target: T2, hP2Y14R (Homo sapiens, UniProt Q15391); experiment: Inhibition of fluorescent antagonist binding in whole hP2Y14R-expressing CHO cells (flow cytometry)
# T2 construct: expressed in transfected cells; host or cells: CHO cells
# T2 sequence (Q15391 1-338): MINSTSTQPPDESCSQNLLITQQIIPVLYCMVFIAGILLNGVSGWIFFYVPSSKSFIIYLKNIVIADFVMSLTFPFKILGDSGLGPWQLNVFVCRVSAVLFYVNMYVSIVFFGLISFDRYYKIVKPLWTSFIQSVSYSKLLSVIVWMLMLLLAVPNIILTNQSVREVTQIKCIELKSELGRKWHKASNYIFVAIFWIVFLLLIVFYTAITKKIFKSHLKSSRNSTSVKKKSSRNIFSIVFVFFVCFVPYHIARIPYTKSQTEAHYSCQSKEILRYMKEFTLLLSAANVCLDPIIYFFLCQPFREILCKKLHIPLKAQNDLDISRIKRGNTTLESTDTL
# PLE = experiment: Esterase cleavage of prodrugs in the presence of PLE; type: in vitro ADME; settings: 37° C.; for Percent cleavage at 72 h: pH 7.3, PLE
# [1] = tested on: allergen-induced airway inflammation; experiment: Ovalbumin/Aspergillus mouse asthma model (BALF leukocytes); settings: 20 μmol/kg; for eosinophil counts in the BALF: i.p. prior to allergen challenge, two days post-challenge
# hERG ion channel = hERG ion channel (Homo sapiens, UniProt Q12809); experiment: hERG ion channel block, patch clamp assay
# [2] = Aqueous solubility, pION method
# [3] = HPLC-based lipophilicity (Log D7.4); settings: pH 7.4
# [4] = tested on: CCI-induced mechano-allodynia; experiment: Chronic constriction injury (CCI) mouse model of neuropathic pain; settings: 10 μmol/kg, i.p., day 7 post-injury
# [5] = read-out: mP2Y14R, IC50, Table 2, tracer 2 (20 nM, 45 min), HEK293 cells
# [6] = read-out: mP2Y14R, IC50, Table 6, whole mP2Y14R-HEK cells, 200 nM of 3, mean ± SEM, n = 3-6
# [7] = Table 6, fluorescent hP2Y14R antagonist (3), read-out: hP2Y14R, IC50
# [8] = Table 1, fluorescent antagonist 2, hP2Y14R-CHO cells, 3-4 determinations, read-out: IC50, hP2Y14R (μM, mean ± SEM)
# [9] = Table 2, whole hP2Y14R-CHO cells, 20 nM fluorescent antagonist 3, mean+SEM, n = 3-6, read-out: IC50
# hERG ion channel, sequence (Q12809 whole entry): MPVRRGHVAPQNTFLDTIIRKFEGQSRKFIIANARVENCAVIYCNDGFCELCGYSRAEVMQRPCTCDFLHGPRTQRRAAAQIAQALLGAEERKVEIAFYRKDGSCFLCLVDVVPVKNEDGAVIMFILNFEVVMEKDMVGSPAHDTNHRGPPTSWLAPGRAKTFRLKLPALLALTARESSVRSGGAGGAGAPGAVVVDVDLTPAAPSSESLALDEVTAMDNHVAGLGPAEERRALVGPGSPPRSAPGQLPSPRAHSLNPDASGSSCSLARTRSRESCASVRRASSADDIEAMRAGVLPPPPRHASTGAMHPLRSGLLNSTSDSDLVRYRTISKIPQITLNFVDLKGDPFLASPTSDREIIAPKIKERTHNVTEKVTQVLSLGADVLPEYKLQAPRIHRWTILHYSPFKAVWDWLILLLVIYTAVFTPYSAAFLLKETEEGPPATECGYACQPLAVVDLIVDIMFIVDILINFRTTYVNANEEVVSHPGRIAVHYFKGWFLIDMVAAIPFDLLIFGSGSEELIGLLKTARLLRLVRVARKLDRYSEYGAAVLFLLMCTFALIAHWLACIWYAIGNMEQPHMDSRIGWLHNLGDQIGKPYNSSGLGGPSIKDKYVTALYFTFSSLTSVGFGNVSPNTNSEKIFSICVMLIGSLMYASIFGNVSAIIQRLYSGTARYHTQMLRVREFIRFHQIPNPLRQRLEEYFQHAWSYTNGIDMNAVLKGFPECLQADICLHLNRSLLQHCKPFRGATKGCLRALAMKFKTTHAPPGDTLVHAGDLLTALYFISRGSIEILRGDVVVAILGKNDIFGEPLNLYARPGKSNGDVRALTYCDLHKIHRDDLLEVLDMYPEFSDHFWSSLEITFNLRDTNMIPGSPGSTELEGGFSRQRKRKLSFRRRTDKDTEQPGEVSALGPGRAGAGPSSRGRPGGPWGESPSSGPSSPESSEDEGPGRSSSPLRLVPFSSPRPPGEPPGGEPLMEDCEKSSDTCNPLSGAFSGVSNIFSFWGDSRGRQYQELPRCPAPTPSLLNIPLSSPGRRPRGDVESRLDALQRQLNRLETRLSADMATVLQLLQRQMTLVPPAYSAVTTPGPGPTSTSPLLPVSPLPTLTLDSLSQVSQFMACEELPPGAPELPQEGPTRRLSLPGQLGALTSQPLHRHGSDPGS
structure (smiles),measurement,setting,value
"O=C(O)c1cc(-c2ccc(-c3cc(CO)on3)cc2)cc(-n2cc(-c3ccc(C(F)(F)F)cc3)nn2)c1 [Compound 29, 4′-(5-(Hydroxymethyl)isoxazol-3-yl)-5-(4-(4-(trifluoromethyl)phenyl)-1H-1,2,3-triazol-1-yl)-[1,1′-biphenyl]-3-carboxylic acid]",affinity at the mP2Y14R vs the human homologue,mP2Y14R,slightly enhanced affinity
same,IC50,mP2Y14R; [5],184 ± 24 nM
same,IC50,"hP2Y14R; Table 2, tracer 2 (20 nM, 45 min), CHO cells, read-out: hP2Y14R, IC50",0.296 ± 0.013 µM
"CN(C)C(=O)COC(=O)c1cc(-c2ccc(C3CCNCC3)cc2)cc(-n2cc(-c3ccc(C(F)(F)F)cc3)nn2)c1 [Compound 37a, 2-(Dimethylamino)-2-oxoethyl 4′-(piperidin-4-yl)-5-(4-(4-(trifluoromethyl)phenyl)-1H-1,2,3-triazol-1-yl)-[1,1′-biphenyl]-3-carboxylate]","t1/2 (min, mean ± SEM) for esterase cleavage","PLE; pH 7.3, aqueous medium, PLE",most rapidly cleaved
same,lymphocyte count in the BALF,[1]; i.p.,trended higher than in vehicle control
"CC(=O)N1CCC(c2ccc(-c3cc(C(=O)OCC(=O)N(C)C)cc4cc(-c5ccc(C(F)(F)F)cc5)ccc34)cc2)CC1 [Compound 37c, 2-(Dimethylamino)-2-oxoethyl 4-(4-(1-acetylpiperidin-4-yl)phenyl)-7-(4-(trifluoromethyl)phenyl)-2-naphthoate]",Percent cleavage at 72 h,PLE,27.2 ± 0.3%
same,eosinophil counts in the BALF,[1],significantly reduced eosinophils to a greater extent than the parent antagonists
"N[C@@H]1C[C@H](C(=O)O)[C@@H](c2ccc(-c3cc(C(=O)O)cc4cc(-c5ccc(C(F)(F)F)cc5)ccc34)cc2)C1 [Compound 138, 4-(4-((1S,2S,4S)-4-Amino-2-carboxycyclopentyl)phenyl)-7-(4-(trifluoromethyl)phenyl)-2-naphthoic acid]",IC50,mP2Y14R; [6],40.9 ± 6.3 nM
same,IC50,hP2Y14R; [7],0.0496 ± 0.0135 µM
"NCC#Cc1ccc(-c2cc(C(=O)O)cc(-n3cc(-c4ccc(C(F)(F)F)cc4)nn3)c2)cc1 [Compound 19, 4′-(3-Aminoprop-1-yn-1-yl)-5-(4-(4-(trifluoromethyl)phenyl)-1H-1,2,3-triazol-1-yl)-[1,1′-biphenyl]-3-carboxylic acid]",affinity at the mP2Y14R vs the human homologue,mP2Y14R,nearly the same affinity in the two species
same,IC50,mP2Y14R; [5],375 ± 175 nM
same,IC50,hP2Y14R; [8],0.308 ± 0.063 µM
"O=C(O)c1cc(-c2ccc([C@@H]3C[C@@H]4C[C@H]3CN4)cc2)c2ccc(-c3ccc(C(F)(F)F)cc3)cc2c1 [Compound 115, 4-(4-((1R,4R,5R)-2-Azabicyclo[2.2.1]heptan-5-yl)phenyl)-7-(4-(trifluoromethyl)phenyl)-2-naphthoic acid]",IC50,hERG ion channel,> 30000 nM
same,IC50,hP2Y14R; [9],0.00862 ± 0.00211 µM
"O=C(O)c1cc(-c2ccc([C@@H]3C[C@@H]4C[C@H]3C(=O)N4)cc2)c2ccc(-c3ccc(C(F)(F)F)cc3)cc2c1 [Compound 120, 4-(4-((1R,4R,5R)-3-Oxo-2-azabicyclo[2.2.1]heptan-5-yl)phenyl)-7-(4-(trifluoromethyl)phenyl)-2-naphthoic acid]",EC50,"hERG ion channel; read-out: (EC50), μM for stimulation of hERG channel activity, patch clamp, Table 8",18.1 µM
same,Solubility (ug/mL) pH 4,[2],0.31 ± 0.14 ug/mL
same,Solubility (ug/mL) pH 7.4,[2],3.42 ± 0.46 ug/mL
same,IC50,mP2Y14R; [6],26.2 ± 10.7 nM
same,IC50,hP2Y14R; [7],0.0395 ± 0.0098 µM
"N[C@H]1C[C@@H](CO)[C@H](c2ccc(-c3cc(C(=O)O)cc4cc(-c5ccc(C(F)(F)F)cc5)ccc34)cc2)C1 [Compound 135, 4-(4-((1R,2R,4R)-4-Amino-2-(hydroxymethyl)cyclopentyl)phenyl)-7-(4-(trifluoromethyl)phenyl)-2-naphthoic acid]",IC50,hERG ion channel,> 30000 nM
same,Solubility (ug/mL) pH 4,[2],4.97 ± 0.11 ug/mL
same,Solubility (ug/mL) pH 7.4,[2],0.66 ± 0.02 ug/mL
same,chromatographic logD,[3],0.957 ± 0.046
same,IC50,hP2Y14R; [9],0.0126 ± 0.0019 µM
"O=C(O)c1cc(-c2ccc([C@@H]3C[C@H]4CN[C@@H]3C4)cc2)c2ccc(-c3ccc(C(F)(F)F)cc3)cc2c1 [Compound 116, 4-(4-((1R,4R,6S)-2-Azabicyclo[2.2.1]heptan-6-yl)phenyl)-7-(4-(trifluoromethyl)phenyl)-2-naphthoic acid]",IC50,hERG ion channel,> 30000 nM
same,Solubility (ug/mL) pH 4,[2],1.45 ± 0.05 ug/mL
same,Solubility (ug/mL) pH 7.4,[2],0.40 ± 0.13 ug/mL
same,chromatographic logD,[3],2.11 ± 0.06
same,IC50,hP2Y14R; [9],0.0098 ± 0.0003 µM
"CN(C)C(=O)COC(=O)c1cc(-c2ccc(-c3cc(CO)on3)cc2)c2ccc(-c3ccc(C(F)(F)F)cc3)cc2c1 [Compound 37b, 2-(Dimethylamino)-2-oxoethyl 4-(4-(5-(hydroxymethyl)isoxazol-3-yl)phenyl)-7-(4-(trifluoromethyl)phenyl)-2-naphthoate]",Percent cleavage at 72 h,PLE,32.6 ± 0.9%
same,eosinophil counts in the BALF,[1],significantly reduced eosinophils to a greater extent than the parent antagonists
"NCCCNC(=O)c1ccc(-c2cc(C(=O)O)cc(-n3cc(-c4ccc(C(F)(F)F)cc4)nn3)c2)cc1 [Compound 14, 4′-((3-Aminopropyl)carbamoyl)-5-(4-(4-(trifluoromethyl)phenyl)-1H-1,2,3-triazol-1-yl)-[1,1′-biphenyl]-3-carboxylic acid]",reversal of mechano-allodynia (figure legend),[4],reversal of established mechano-allodynia
same,IC50,hP2Y14R; [8],0.588 ± 0.043 µM
"CC(C)(C)OC(=O)NCCCc1ccc(-c2cc(C(=O)O)cc(-n3cc(-c4ccc(C(F)(F)F)cc4)nn3)c2)cc1 [Compound 20, 4′-(3-((tert-Butoxycarbonyl)amino)propyl)-5-(4-(4-(trifluoromethyl)phenyl)-1H-1,2,3-triazol-1-yl)-[1,1′-biphenyl]-3-carboxylic acid]",EC50,hERG ion channel,18 µM
"O=C(O)c1cc(-c2ccc([C@]3(O)[C@@H]4CC[C@H]3CNC4)cc2)c2ccc(-c3ccc(C(F)(F)F)cc3)cc2c1 [Compound 131, 4-(4-((1R,5S,8r)-8-Hydroxy-3-azabicyclo[3.2.1]octan-8-yl)phenyl)-7-(4-(trifluoromethyl)phenyl)-2-naphthoic acid]",IC50,hERG ion channel,> 30000 nM
same,solubility,"[2]; pH 4, aqueous buffer",2.32 ± 0.25 µg/mL
same,solubility,"[2]; pH 7.4, aqueous buffer",0.54 ± 0.09 µg/mL
same,IC50,mP2Y14R,15.5 ± 3.3 nM
same,chromatographic logD,[3],1.2 ± 0.01
same,IC50,hP2Y14R,0.0213 ± 0.0011 µM
"CC(=O)N1C[C@H]2C[C@@H]1C[C@@H]2c1ccc(-c2cc(C(=O)O)cc3cc(-c4ccc(C(F)(F)F)cc4)ccc23)cc1 [Compound 118, 4-(4-((1S,4S,5S)-2-Acetyl-2-azabicyclo[2.2.1]heptan-5-yl)phenyl)-7-(4-(trifluoromethyl)phenyl)-2-naphthoic acid]",Solubility (ug/mL) pH 7.4,[2],1.86 ± 0.05 ug/mL
same,IC50,mP2Y14R; [6],102 ± 39 nM
same,chromatographic logD,[3],0.921 ± 0.034
same,IC50,hP2Y14R; [7],0.107 ± 0.013 µM
"N[C@@H]1C[C@H](CO)[C@@H](c2ccc(-c3cc(C(=O)O)cc4cc(-c5ccc(C(F)(F)F)cc5)ccc34)cc2)C1 [Compound 134, 4-(4-((1S,2S,4S)-4-Amino-2-(hydroxymethyl)cyclopentyl)phenyl)-7-(4-(trifluoromethyl)phenyl)-2-naphthoic acid]",IC50,hERG ion channel,> 30000 nM
same,IC50,mP2Y14R; [6],17.9 ± 2.6 nM
same,IC50,hP2Y14R; [7],0.0108 ± 0.0021 µM
